Here are results for 24 compounds from patent US11008317B2, “Triazolopyridine inhibitors of myeloperoxidase and/or EPX” (priority 2016, dated 2021).

The target of assay [1] is T1, myeloperoxidase (Homo sapiens, UniProt P05164).
T1 sequence (P05164 49-745): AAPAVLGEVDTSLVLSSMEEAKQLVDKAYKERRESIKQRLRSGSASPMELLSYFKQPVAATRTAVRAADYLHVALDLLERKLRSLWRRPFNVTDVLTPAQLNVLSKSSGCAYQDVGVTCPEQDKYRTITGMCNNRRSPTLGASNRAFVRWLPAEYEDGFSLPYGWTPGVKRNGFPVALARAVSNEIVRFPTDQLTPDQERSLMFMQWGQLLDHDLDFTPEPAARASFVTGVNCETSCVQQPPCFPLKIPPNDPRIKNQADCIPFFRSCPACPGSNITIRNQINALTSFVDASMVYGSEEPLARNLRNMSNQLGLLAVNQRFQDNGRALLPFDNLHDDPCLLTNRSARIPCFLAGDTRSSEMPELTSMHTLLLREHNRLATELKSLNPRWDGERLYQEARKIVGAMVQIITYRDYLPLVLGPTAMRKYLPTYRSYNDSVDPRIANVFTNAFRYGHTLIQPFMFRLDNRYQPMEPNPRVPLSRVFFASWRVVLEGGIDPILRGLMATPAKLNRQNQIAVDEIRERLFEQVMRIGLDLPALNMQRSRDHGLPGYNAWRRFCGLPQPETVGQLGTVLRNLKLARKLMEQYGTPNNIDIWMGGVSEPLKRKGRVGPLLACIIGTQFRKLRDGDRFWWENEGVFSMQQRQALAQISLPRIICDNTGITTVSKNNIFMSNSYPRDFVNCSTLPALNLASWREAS
As to the kind of experiment: MPO Peroxidation Assay (Amplex Red Assay). The settings on record: potency range class, read-out: Amplex Red Assay IC50 value. The assay is classed as biochemical.

Assay [2] addresses T1, myeloperoxidase. Description: MPO Chlorination Assay (APF Assay). In kind it is biochemical. The settings on record: potency range class, read-out: APF Assay IC50 value.

The term IC50 denotes the point on the concentration scale where inhibition reaches its midpoint. Regarding `Nc1cc([C@H](CCCN2CCC(c3ccc4ccccc4c3)CC2)c2ccccc2)c2nn[nH]c2n1` [Example 218, 7-[(1R)-4-[4-(naphthalen-2-yl)piperidin-1-yl]-1-phenylbutyl]-3H-[1,2,3]triazolo[4,5-b] pyridin-5-amine], the figures for the half-maximal inhibitory concentration (IC50) at myeloperoxidase [1] and at myeloperoxidase [2] were 101 to 999 nM and 1 to 100 nM, respectively.
On to `Nc1cc(C(CCNC2CCC(c3ccccc3)(c3ccccc3)CC2)c2ccccc2)c2nn[nH]c2n1` (stereo not drawn) [Example 127, 7-{3-[(4,4-diphenylcyclohexyl)amino]-1-phenylpropyl}-3H-[1,2,3]triazolo[4,5-b]pyridin-5-amine], for which the values for the IC50 on myeloperoxidase [1] and on myeloperoxidase [2] were 1000 to 10000 nM and 1 to 100 nM, respectively.
On the same counts, the results for `Nc1cc([C@H](Cc2nc3ccc(-c4ccccc4)cc3[nH]2)c2ccccc2)c2nn[nH]c2n1` [Example 256, (R)-7-(1-phenyl-2-(6-phenyl-1H-benzo[d]imidazol-2-yl)ethyl)-3H-[1,2,3]triazolo [4,5-b]pyridin-5-amine] are 101 to 999 nM and 101 to 999 nM.
In the case of `Nc1cc([C@H](Cc2nc3cc(F)c(-c4ccccc4)cc3[nH]2)c2ccccc2)c2nn[nH]c2n1` [Example 259, (R)-7-(2-(5-fluoro-6-phenyl-1H-benzo[d]imidazol-2-yl)-1-phenylethyl)-3H-[1,2,3]triazolo[4,5-b] pyridin-5-amine], the half-maximal inhibitory concentration (IC50) on myeloperoxidase [1] and on myeloperoxidase [2] was 101 to 999 nM in each case.
For the compound `COCCN(CC[C@H](c1ccccc1)c1cc(N)nc2[nH]nnc12)C12CCC(c3ccccc3)(CC1)CC2` [Example 196, 7-[(1R)-3-[(2-methoxyethyl)({4-phenylbicyclo[2.2.2]octan-1-yl})amino]-1-phenylpropyl]-3H-[1,2,3]triazolo[4,5-b]pyridin-5-amine], the IC50 at myeloperoxidase [1] lay within 101 to 999 nM; on myeloperoxidase [2], 1 to 100 nM.
With `Nc1cc(C(CCN[C@@H]2CCc3c(Cl)cccc32)c2ccccc2)c2nn[nH]c2n1` (stereo partly drawn) [Example 65, 7-(3-{[(1R)-4-chloro-2,3-dihydro-1H-inden-1-yl]amino}-1-phenylpropyl)-3H-[1,2,3]triazolo[4,5-b]pyridin-5-amine], the IC50 on myeloperoxidase [1] and at myeloperoxidase [2] was 101 to 999 nM in each case.
As to `Nc1cc([C@H](Cc2nc3ccc(-c4ccccc4)cc3s2)c2ccccc2)c2nn[nH]c2n1` [Example 242, (R)-7-(1-phenyl-2-(6-phenylbenzo[d]thiazol-2-yl)ethyl)-3H-[1,2,3]triazolo [4,5-b]pyridin-5-amine], the IC50 at myeloperoxidase [1] and at myeloperoxidase [2] was 1 to 100 nM throughout.
Take `Nc1cc(C(CCNC23CC4CC(CC(C4)C2)C3)c2ccccc2)c2nn[nH]c2n1` (stereo not drawn) [Example 21, 7-{3-[(adamantan-1-yl)amino]-1-phenylpropyl}-3H-[1,2,3]triazolo[4,5-b]pyridin-5-amine]: the IC50 on myeloperoxidase [1] and on myeloperoxidase [2] was 101 to 999 nM throughout.
As for `Nc1cc(C(CCNCc2ccc(C(F)(F)F)cc2)c2ccccc2)c2nn[nH]c2n1` (stereo not drawn) [Example 54, 7-[1-phenyl-3-({[4-(trifluoromethyl)phenyl]methyl}amino)propyl]-3H-[1,2,3]triazolo[4,5-b]pyridin-5-amine], the IC50 on myeloperoxidase [1] and at myeloperoxidase [2] was 101 to 999 nM each time.
Take `CC(NCCC(c1ccccc1)c1cc(N)nc2[nH]nnc12)c1ccccc1` (single isomer, unassigned) [Example 12, 7-(1-phenyl-3-((1-phenylethyl)amino)propyl)-3H-[1,2,3]triazolo[4,5-b]pyridin-5-amine]: the IC50 on myeloperoxidase [1] and on myeloperoxidase [2] was 101 to 999 nM in each case.
With `Nc1cc(C(CCNC2Cc3ccccc3C2)c2ccccc2)c2nn[nH]c2n1` (stereo not drawn) [Example 41, 7-{3-[(2,3-dihydro-1H-inden-2-yl)amino]-1-phenylpropyl}-3H-[1,2,3]triazolo[4,5-b]pyridin-5-amine], the IC50 at myeloperoxidase [1] and at myeloperoxidase [2] was 101 to 999 nM throughout.
In the case of `Nc1cc(C(CCNC2CCCc3ccccc32)c2ccccc2)c2nn[nH]c2n1` (stereo not drawn) [Example 28, 7-{1-phenyl-3-[(1,2,3,4-tetrahydronaphthalen-1-yl)amino]propyl}-3H-[1,2,3]triazolo [4,5-b]pyridin-5-amine], the IC50 on myeloperoxidase [1] and on myeloperoxidase [2] was 1 to 100 nM each time.
Take `Nc1cc(C(CCOC2CCc3ccccc32)c2ccccc2)c2nn[nH]c2n1` (single isomer, unassigned) [Example 231, 7-(3-((2,3-dihydro-1H-inden-1-yl)oxy)-1-phenylpropyl)-3H-[1,2,3]triazolo[4,5-b]pyridin-5-amine]: the IC50 on myeloperoxidase [1] and on myeloperoxidase [2] was 101 to 999 nM each time.
In the case of `Nc1cc(C(CCN[C@H]2C[C@@H](c3ccccc3)C2)c2ccccc2)c2nn[nH]c2n1` (stereo partly drawn) [Example 76, 7-(1-phenyl-3-{[(1s,3s)-3-phenylcyclobutyl]amino}propyl)-3H-[1,2,3]triazolo[4,5-b]pyridin-5-amine], the IC50 lay in the range of 101 to 999 nM on myeloperoxidase [1] and 1 to 100 nM on myeloperoxidase [2].
In the same order, the values of `Nc1cc(C(CCN[C@H]2CC[C@H](c3ccccc3)CC2)c2cccc(F)c2)c2nn[nH]c2n1` (stereo partly drawn) [Example 156, 7-[1-(3-fluorophenyl)-3-{[(trans)-4-phenylcyclohexyl]amino}propyl]-3H-[1,2,3]triazolo [4,5-b]pyridin-5-amine] are 101 to 999 nM and 1 to 100 nM.
On to `Nc1cc(C(CCNC2c3ccccc3CC2c2ccccc2)c2ccccc2)c2nn[nH]c2n1` (stereo not drawn) [Example 55, 7-{1-phenyl-3-[(2-phenyl-2,3-dihydro-1H-inden-1-yl)amino]propyl}-3H-[1,2,3] triazolo[4,5-b] pyridin-5-amine], for which the IC50 on myeloperoxidase [1] was in the range of 1000 to 10000 nM; at myeloperoxidase [2] it was 101 to 999 nM.
On the same counts, the results for `Nc1cc([C@H](Cc2nc3c(-c4ccccc4)c(F)c(F)cc3[nH]2)c2ccccc2)c2nn[nH]c2n1` [Example 246, (R)-7-(2-(5,6-difluoro-4-phenyl-1H-benzo [d]imidazol-2-yl)-1-phenylethyl)-3H-[1,2,3]triazolo[4,5-b] pyridin-5-amine] are 101 to 999 nM and 1 to 100 nM.
On the same counts, the results for `N#Cc1cccc(C(CCNC2CCC(c3ccccc3)CC2)c2cc(N)nc3[nH]nnc23)c1` (stereo not drawn) [Example 155, 3-(1-{5-amino-3H-[1,2,3]triazolo [4,5-b]pyridin-7-yl}-3-[(4-phenylcyclohexyl)amino]propyl)benzonitrile] are 101 to 999 nM and 1 to 100 nM.
Regarding `Nc1cc(C(CCNC2CCC(Cc3ccccc3)(c3ccccc3)CC2)c2ccccc2)c2nn[nH]c2n1` (stereo not drawn) [Example 126, 7-{3-[(4-benzyl-4-phenylcyclohexyl)amino]-1-phenylpropyl}-3H-[1,2,3]triazolo[4,5-b]pyridin-5-amine], the figures for the concentration for half-maximal inhibition (IC50) on myeloperoxidase [1] and on myeloperoxidase [2] were 1000 to 10000 nM and 1 to 100 nM, respectively.
In the case of `Nc1cc(C(CCNC23CCC(c4ccccc4)(CC2)C(O)C3)c2ccccc2)c2nn[nH]c2n1` (stereo not drawn) [Example 145, 4-[(3-{5-amino-3H-[1,2,3]triazolo[4,5-b]pyridin-7-yl}-3-phenylpropyl)amino]-1-phenylbicyclo [2.2.2]octan-2-ol], the IC50 at myeloperoxidase [1] and at myeloperoxidase [2] was 1 to 100 nM throughout.
Regarding `Nc1cc(C(Cc2ccccn2)c2ccccc2)c2nn[nH]c2n1` (stereo not drawn) [Example 38, 7-(1-phenyl-2-(pyridin-2-yl)ethyl)-3H-[1,2,3]triazolo[4,5-b]pyridin-5-amine], the IC50 on myeloperoxidase [1] and on myeloperoxidase [2] was 101 to 999 nM each time.
In the case of `Nc1cc([C@H](Cc2nc3c(-c4ccccc4)cc(C(F)(F)F)cc3[nH]2)c2ccccc2)c2nn[nH]c2n1` [Example 248, (R)-7-(1-phenyl-2-(4-phenyl-6-(trifluoromethyl)-1H-benzo [d]imidazol-2-yl)ethyl)-3H-[1,2,3] triazolo[4,5-b] pyridin-5-amine], the IC50 at myeloperoxidase [1] is 101 to 999 nM; at myeloperoxidase [2], 1 to 100 nM.
For the compound `Nc1cc(C(CCNC2(C(F)(F)F)CCC(c3ccccc3)CC2)c2ccccc2)c2nn[nH]c2n1` (stereo not drawn) [Example 151, 7-(1-phenyl-3-{[4-phenyl-1-(trifluoromethyl)cyclohexyl]amino}propyl)-3H-[1,2,3]triazolo[4,5-b] pyridin-5-amine], the IC50 on myeloperoxidase [1] and on myeloperoxidase [2] was 1000 to 10000 nM in each case.
Regarding `Nc1cc(C(CCNC2CC(c3ccccc3)C2)c2ccccc2)c2nn[nH]c2n1` (single isomer, unassigned) [Example 81, 7-{1-phenyl-3-[(3-phenylcyclobutyl)amino]propyl}-3H-[1,2,3]triazolo[4,5-b] pyridin-5-amine], the IC50 lay within 1000 to 10000 nM on myeloperoxidase [1] and 1 to 100 nM on myeloperoxidase [2].
